Experimental data as given in patent US11122801B2, “Inhibitors of enzymes that confer pesticide resistance” (APRESLABS LTD., priority 2015, dated 2021).

Legend:
[1] = system: Houseflies (Musca domestica); test: Housefly topical mortality with α-cypermethrin and Syn A (Example 1); type: in vivo; conditions: α-cypermethrin alone, 1 μL of 0.0025 g L^−1, after 24 hrs
Experimental: Houseflies (Musca domestica) were treated with 1 μL of a diagnostic concentration (0.0025 g L^−1) of α-cypermethrin, such that about 20% of the flies had died after 24 hrs.
With the addition of 1% ‘Syn A’, (i.e. 10 ug/fly) the potassium salts of fatty acids (C14-C18) obtained as a by-product of olive oil production, the mortality increased to about 70% after 24 hours. The potassium salt synergist was applied first, and the insecticide was applied within 1 hr of the application of the synergist.
The mortality rate when Syn A was used on its own was about 10%.

[2] = system: P450 activity derived from insecticide-resistant B-type B. tabaci; test: P450 activity by deethylation of ethoxycoumarin (Example 5); conditions: 1% (30 ug/incubation), 10 minutes incubation, 7-ethoxycoumarin
Experimental: P450 activity was measured by the deethylation of ethoxycoumarin. 50 μL of the enzyme in the presence/absence of synergists was incubated for 10 minutes after which […] of 0.5 mm 7-ethyoxycoumarin in a phosphate buffer (pH 7.8) was added/incubated for a further 5 minutes at 30° C. after which 10 μL of 9.6 mm NaDPH was added. Fluorometric units (Fu) were measured with excitation wavelengths of 370 nm and 460 nm.

[3] = target: T1, resistance-associated esterase, E4 (Myzus persicae, UniProt P35501); test: Inhibition of purified resistance-associated esterase E4, para-nitrophenyl acetate substrate; type: biochemical, M. persicae; conditions: 3 μL 1% synergist, 10 minutes incubation, 1 mM para-nitrophenyl acetate, 405 nm
T1 sequence (P35501 24-552): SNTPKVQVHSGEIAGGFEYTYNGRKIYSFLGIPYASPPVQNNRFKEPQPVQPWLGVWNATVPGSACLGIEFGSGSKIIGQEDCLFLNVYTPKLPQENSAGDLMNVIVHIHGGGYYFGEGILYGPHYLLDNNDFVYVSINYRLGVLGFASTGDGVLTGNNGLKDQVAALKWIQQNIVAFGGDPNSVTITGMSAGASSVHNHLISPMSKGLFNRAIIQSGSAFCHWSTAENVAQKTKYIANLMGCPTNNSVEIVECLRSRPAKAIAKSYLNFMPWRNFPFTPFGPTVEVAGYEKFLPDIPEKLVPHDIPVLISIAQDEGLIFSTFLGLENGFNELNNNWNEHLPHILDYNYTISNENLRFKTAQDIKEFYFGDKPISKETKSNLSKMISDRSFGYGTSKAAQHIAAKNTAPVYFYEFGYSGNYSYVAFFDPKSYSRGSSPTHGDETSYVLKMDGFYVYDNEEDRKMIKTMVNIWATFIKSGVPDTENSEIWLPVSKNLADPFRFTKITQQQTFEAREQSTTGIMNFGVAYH
Experimental: The assay used 1 mM para-nitrophenyl acetate as a substrate. 10 μL dilute E4 in 40 μL phosphate buffer (pH 7.0) was incubated with 3 μL 1% synergist for 10 minutes. 200 μL of 1 mM para-nitrophenyl acetate was added and the remaining activity was measured at 405 nm in a microplate spectrophotometer (Molecular Devices). Inhibition by the same concentration of PBO is shown for comparison.

[4] = system: P450 activity derived from Meligethes aeneus; test: P450 activity by deethylation of ethoxycoumarin (Example 7); type: biochemical; conditions: equal concentrations, 30 ug/incubation
Experimental: P450 activity was measured by the deethylation of ethoxycoumarin.
(30 ug/incubation) as used in Example 5.

CC1(C)C(C=C(Cl)Cl)C1C(=O)OC(C#N)c1cccc(Oc2ccccc2)c1 (stereo not drawn) [α-cypermethrin]
flies died (mortality) [1]: about 20%

CCCCCCCC/C=C\CCCCCCCC(=O)O [oleic acid]
inhibition of P450 activity [2]: inhibition
inhibition of esterase E4 [3]: inhibition

CCCCC/C=C\C/C=C\CCCCCCCC(=O)O [linoleic acid]
inhibition of esterase E4 [3]: inhibition

CCCCOCCOCCOCc1cc2c(cc1CCC)OCO2 [PBO, piperonyl butoxide]
inhibition of P450 activity [4]: inhibition
